Data: PMC11990898, “Novel Isatin–Chalcone Hybrid Molecules: Design, Synthesis and Anti-Neuroinflammatory Activity Evaluation” (Molecules, 2025)

How the values were obtained:
Assay type in all cases: cell-based, mouse
[1] = system: NO release from LPS-stimulated BV2 cells; experiment: NO release inhibition in LPS-stimulated BV2 cells (Griess method); details: for IC50 / inhibition at 20 µM: Mus musculus, BV-2, LPS-stimulated BV2 cells; for IC50: 24 h; for inhibition at 20 µM / Nitrite (NO release amount): compound at 20 μM; for inhibition at 20 µM: read-out: NO inhibition rate; for Nitrite (NO release amount): BV2 cells induced by LPS, Griess test
Protocol: BV2 cells stimulated by lipopolysaccharide (LPS) lead to an increase in NO release. Therefore, we used the inhibitory ability of the target compounds on NO as a preliminary method to evaluate their anti-neuroinflammatory properties. We evaluated the inhibitory ability of isatin–chalcone hybrid derivatives 4a–t on the release of NO from BV2 cells at 20 μM. The release amount of NO was detected by the Griess method, and the actual release amount of NO was calculated based on the experimental data.
BV2 cells were plated in 96-well microplates at 40,000 cells per well (100 μL/well) and incubated for 24 h. Then, 50 μL of LPS solution with a final concentration of 100 ng/mL and 50 μL of compounds (diluted with medium to a final concentration of 0.31–20 μM) were added, and each concentration had 3 parallel wells. The NO assay kit was used to carry out nitrite assays after 24 h. The 50 μL of culture medium was mixed with the GrisR1 (50 μL) and GrisR2 (50 μL) of the NO assay kit in another new 96-well plate. The absorbance was detected at 540 nm. The percentage of inhibition of NO was obtained from the following formula: [(Rlps − RB − RC)/(Rlps − RB)] × 100, where Rlps is the release amount of only the LPS-treated group, RB is the release amount of the normal control and RC is the release amount of the test compound and LPS-treated group. The IC50 values of test compounds were calculated by linear regression plots.

[2] = system: BV2 microglial cells; experiment: Cell viability assay (MTS) on BV2 cells; details: for IC50: Mus musculus, BV-2, MTS, 24 h
Protocol: (§1) BV2 microglial cells (SCSP-5208, Cell Bank, Chinese Academy of Sciences, Shanghai, China) were incubated in high-glucose DMEM supplemented with 10% fetal bovine serum and 1% penicillin and streptomycin in a humidified atmosphere of 5% CO2 at 37 °C.
(§2) BV2 cells were plated in 96-well microplates at 20,000 cells per well (100 μL/well) and incubated for 24 h. Then, 100 μL of compounds (diluted with medium to a final concentration of 1.56–100 μM) was added, and each concentration had 3 parallel wells. After 24 h, the cell viability was measured by MTS assay. The absorbance was detected at 490 nm. The percentage of viability was obtained from the following formula: ODdrug-treated/ODnormal cells × 100. The IC50 values of test compounds were calculated by linear regression plots.

[3] = system: IL-6; experiment: ELISA of IL-6 released by LPS-stimulated BV2 cells; details: for effect on production of IL-6: result in words
Protocol: (§3) BV2 cells were plated in 96-well microplates at 40,000 cells per well (100 μL/well) and incubated for 24 h. Then, 50 μL of LPS solution with a final concentration of 100 ng/mL and 50 μL of compounds (diluted with medium to a final concentration of 0.75–40 μM) were added, and each concentration had 3 parallel wells. The supernatant was collected after 24 h. Then, according to the manufacturer’s instructions, the ELISA assay kit was used to measure the concentrations of IL-6 and TNF-α. The absorbance was detected at 450 nm.

[4] = system: TNF-α; experiment: ELISA of TNF-α released by LPS-stimulated BV2 cells; details: for effect on production of TNF-α: result in words
Protocol: as §3

[5] = Cell viability assay (MTS) on BV2 cells; details: mouse, BV2 microglial cells, MTS
Protocol: as §1, §2

SMILES | IC50 [1] [µM] | inhibition at 20 µM [1] [%] | IC50 [2] [µM] | effect on production of IL-6 [3] | effect on production of TNF-α [4] | Nitrite (NO release amount) [1] [µM] | cytotoxicity ([2]; under the concentration of 12.5 μM) | viability at 24 h, 3.1 µM ([5]; compound at 3.1 μM, read-out: cell viability (cell survival rate)) [%] | viability at 24 h, 6.3 μM ([5]; compound at 6.3 μM (printed 6.23 μM for 4b), read-out: cell viability (cell survival rate)) [%] | viability at 24 h, 12.5 µM ([5]; compound at 12.5 μM) [%] | viability at 24 h, 25 µM ([5]; compound at 25 μM, 24 h) [%] | reduction of IL-6 levels ([3]; compound at 1.5 μM, p < 0.0001) [%] | reduction of TNF-α levels ([4]; compound at 1.5 μM, p < 0.0001) [%]
CCOC(=O)CN1C(=O)/C(=C/C(=O)c2cc(OC)c(OC)c(OC)c2)c2cc(C)ccc21 [Compound 9e, Ethyl (E)-2-(5-methyl-2-oxo-3-(2-oxo-2-(3,4,5-trimethoxyphenyl)ethylidene)indolin-1-yl)acetate] | 10.3 | 72 | 80.6 | relatively weaker inhibitory effects | relatively weaker inhibitory effects | – | – | – | – | – | – | – | –
CCOC(=O)CN1C(=O)/C(=C/C(=O)c2cc(OC)c(OC)c(OC)c2)c2ccccc21 [Compound 4j, Ethyl (E)-2-(2-oxo-3-(2-oxo-2-(3,4,5-trimethoxyphenyl)ethylidene)indolin-1-yl)acetate] | 15.7 | 71 | 71.8 | relatively weaker inhibitory effects | relatively weaker inhibitory effects | 8.6 ± 0.1 | – | – | – | – | – | – | –
COc1cc(C(=O)/C=C2/C(=O)N(CC(=O)OCCCc3ccccc3)c3ccccc32)cc(OC)c1OC [Compound 5g, 3-Phenylpropyl (E)-2-(2-oxo-3-(2-oxo-2-(3,4,5-trimethoxyphenyl)ethylidene)indolin-1-yl)acetate] | 6 | – | 48.5 | relatively weaker inhibitory effects | relatively weaker inhibitory effects | – | – | – | – | – | – | – | –
CCOC(=O)CN1C(=O)/C(=C/C(=O)/C=C/c2ccccc2)c2ccccc21 [Compound 4b, Ethyl 2-((E)-2-oxo-3-((E)-2-oxo-4-phenylbut-3-en-1-ylidene)indolin-1-yl)acetate] | 1.6 | 98 | 34.6 | decreased significantly | decreased significantly | 0.69 ± 0.01 | did not show obvious cytotoxicity | 98.3 | 89.9 | 79.5 | 48 | 47 | 37
